From patent US20260327191A1, “GSK3a INHIBITORS AND METHODS OF USE THEREOF” (Blueprint Medicines Corporation, priority 2023, published 2026)
pIC50: −log10 of the molar value.

Tests used:
human GSK3α = target: T1, human GSK3α (Homo sapiens, UniProt P49840); test: In vitro enzymatic activity assay, GSK3α; assay type: biochemical; settings: 1.0 mM ATP, 1.0 μM peptide substrate, 120 min, 25° C, read-out: Enzyme GSK3α (IC50)
T1 construct: Full length human GSK3α or GSK3B expressed as N-terminal GST fusion proteins; GST (N); purchased Carna Biosciences (Japan); host or cells: baculovirus host
T1 sequence (P49840 whole entry, the tested form may be a part): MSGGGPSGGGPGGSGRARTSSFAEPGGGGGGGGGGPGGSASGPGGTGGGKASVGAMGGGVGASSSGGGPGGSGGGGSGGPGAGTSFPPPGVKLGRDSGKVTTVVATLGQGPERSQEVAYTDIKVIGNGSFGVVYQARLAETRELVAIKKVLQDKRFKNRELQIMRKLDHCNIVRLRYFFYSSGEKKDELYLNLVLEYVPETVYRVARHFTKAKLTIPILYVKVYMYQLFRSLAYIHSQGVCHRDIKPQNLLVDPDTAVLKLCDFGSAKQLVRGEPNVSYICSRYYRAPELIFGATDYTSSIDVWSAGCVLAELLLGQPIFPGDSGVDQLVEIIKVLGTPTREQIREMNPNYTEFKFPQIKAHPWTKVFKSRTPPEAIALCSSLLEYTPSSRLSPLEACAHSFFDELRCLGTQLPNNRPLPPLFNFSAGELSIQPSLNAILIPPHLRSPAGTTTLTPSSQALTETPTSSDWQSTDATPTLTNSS
Procedure: (§1) Full length human GSK3α or GSK3B expressed as N-terminal GST fusion proteins in baculovirus host were purchased from Carna Biosciences (Japan). The kinase was pre-incubated with ATP (adenosine-5′-triphosphate) for 45 min, then incubated with tested compounds for another 45 min in assay buffer that contains 100 mM HEPES (N-2-hydroxyethylpiperazine-N′-2-ethanesulfonic acid), pH 7.5, 10 mM MgCl2, 1.0 mM DTT, and 0.015% Briji-35. […] Percent inhibition was plotted against compound concentration to generate 10-point dose response curve with 3-fold serial dilution starting from 10 μM. IC50 value was determined from the 4-parameter logistic curve fitting.

GSK3A = target: T2, GSK3A (Homo sapiens, UniProt P49840); test: NanoBRET cellular target engagement assay, Nanoluc-GSK3A in HEK293 cells; assay type: cell-based; settings: NanoBRET GSK3α IC50, HEK293 cells, tracer K-8, 2 hours, 37° C
T2 construct: expressed in transfected cells
T2 sequence (P49840 whole entry): as the sequence (P49840 whole entry, the tested form may be a part) above
Procedure: (§2) In the assay, HEK293 cells stably expressing either Nanoluc-GSK3A or Nanoluc-GSK3B were maintained in culture media and seeded, using a multidrop dispenser, at a density of 5×10^3 cells per well in 384-well white plates with 100 ng/ml doxycycline (Sigma) overnight.
(§3) Compound was first diluted in DMSO to generate a 9-point serial dilution then diluted to 10× final concentration in Opti-MEM™ (Gibco). After overnight incubation, cell medium was aspirated from the seeded cells using a microplate automatic washer, then 27 μL of pre-warmed Opti-MEM™ with kinase tracer (K-8) and 3 μL of Opti-MEM™ diluted DMSO or compounds were added per well. Plates were protected from light, mixed in an orbital shaker for 3 min at RT and incubated at 37° C., 5% CO2 in a humidified incubator for 2 hours. After acclimation at RT for 15 min, 15 μL of 3× complete NanoBRET™ Nano-Glo Substrate/Inhibitor (Promega) was added per well. Plates were mixed in an orbital shaker for 3 min at RT and incubated for an additional 30 min. Donor emission at 460 nm and acceptor emission at 647 nm were measured in EnVision multilabel plate reader (Perkin Elmer).

GSK3B [1] = target: T3, GSK3B (Homo sapiens, UniProt P49841); test: NanoBRET cellular target engagement assay, Nanoluc-GSK3B in HEK293 cells; assay type: cell-based; design: expressed in transfected cells; settings: NanoBRET GSK3β IC50, HEK293 cells, tracer K-8, 2 hours, 37° C
T3 sequence (P49841 whole entry): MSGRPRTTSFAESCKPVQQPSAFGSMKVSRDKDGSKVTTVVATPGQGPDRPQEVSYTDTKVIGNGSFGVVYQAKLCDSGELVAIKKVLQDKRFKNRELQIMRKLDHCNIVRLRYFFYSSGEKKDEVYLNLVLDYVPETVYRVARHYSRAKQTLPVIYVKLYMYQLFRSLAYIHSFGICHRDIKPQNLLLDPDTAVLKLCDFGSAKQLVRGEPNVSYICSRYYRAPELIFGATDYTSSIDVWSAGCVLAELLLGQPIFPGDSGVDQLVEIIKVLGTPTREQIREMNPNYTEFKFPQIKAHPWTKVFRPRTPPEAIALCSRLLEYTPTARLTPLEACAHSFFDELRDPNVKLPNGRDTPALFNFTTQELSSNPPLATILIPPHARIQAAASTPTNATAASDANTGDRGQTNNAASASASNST
Procedure: as §2, §3

GSK3B [2] = target: T3, GSK3B; test: In vitro enzymatic activity assay, GSK3β; assay type: biochemical; design: Full length human GSK3α or GSK3B expressed as N-terminal GST fusion proteins; GST (N); purchased Carna Biosciences (Japan); host or cells: baculovirus host; settings: 1.0 mM ATP, 1.0 μM peptide substrate, 120 min, 25° C, read-out: Enzyme GSK3β (IC50)
Procedure: as §1

Structure (SMILES) | pIC50 (human GSK3α) | pIC50 (GSK3A) | pIC50 (GSK3B [1]) | pIC50 (GSK3B [2])
C[C@@H](N)c1cncc(NC(=O)c2c(N)ncn(-c3c(Cl)cc(Cl)cc3Cl)c2=O)c1 (single isomer, unassigned) [Example 50, (R)-4-amino-N-(5-(1-aminoethyl)pyridin-3-yl)-6-oxo-1-(2,4,6-trichlorophenyl)-1,6-dihydropyrimidine-5-carboxamide or (S)-4-amino-N-(5-(1-aminoethyl)pyridin-3-yl)-6-oxo-1-(2,4,6-trichlorophenyl)-1,6-dihydropyrimidine-5-carboxamide] | 7.78 | 8.13 | 6.36 | 6.15
COc1cc(C)c(-n2cnc(N)c(C(=O)Nc3cncc(C4CCCCCN4)c3)c2=O)c(C)c1 (single isomer, unassigned) [Example 53, (R)-4-amino-N-(5-(azepan-2-yl)pyridin-3-yl)-1-(4-methoxy-2,6-dimethylphenyl)-6-oxo-1,6-dihydropyrimidine-5-carboxamide or (S)-4-amino-N-(5-(azepan-2-yl)pyridin-3-yl)-1-(4-methoxy-2,6-dimethylphenyl)-6-oxo-1,6-dihydropyrimidine-5-carboxamide] | 7.89 | 8.17 | 6.45 | 6.20
C[C@@H](N)c1cncc(NC(=O)c2c(N)ncn(-c3c(Cl)cc(C(F)F)cc3Cl)c2=O)c1 (single isomer, unassigned) [Example 57, (R)-4-amino-N-(5-(1-aminoethyl)pyridin-3-yl)-1-(2,6-dichloro-4-(difluoromethyl)phenyl)-6-oxo-1,6-dihydropyrimidine-5-carboxamide or (S)-4-amino-N-(5-(1-aminoethyl)pyridin-3-yl)-1-(2,6-dichloro-4-(difluoromethyl)phenyl)-6-oxo-1,6-dihydropyrimidine-5-carboxamide] | 8.10 | 8.27 | 6.56 | 6.42
COCc1cc(Cl)c(-n2cnc(N)c(C(=O)Nc3cncc([C@@H](C)N)c3)c2=O)c(Cl)c1 (single isomer, unassigned) [Example 66, (R)-4-amino-N-(5-(1-aminoethyl)pyridin-3-yl)-1-(2,6-dichloro-4-(methoxymethyl)phenyl)-6-oxo-1,6-dihydropyrimidine-5-carboxamide or (S)-4-amino-N-(5-(1-aminoethyl)pyridin-3-yl)-1-(2,6-dichloro-4-(methoxymethyl)phenyl)-6-oxo-1,6-dihydropyrimidine-5-carboxamide] | 8.22 | 8.54 | 6.69 | 6.46
CCOC[C@H](N)c1cncc(NC(=O)c2c(N)ncn(-c3c(Cl)cc(COC)cc3Cl)c2=O)c1 (single isomer, unassigned) [Example 69, (R)-4-amino-N-(5-(1-amino-2-ethoxyethyl)pyridin-3-yl)-1-(2,6-dichloro-4-(methoxymethyl)phenyl)-6-oxo-1,6-dihydropyrimidine-5-carboxamide or (S)-4-amino-N-(5-(1-amino-2-ethoxyethyl)pyridin-3-yl)-1-(2,6-dichloro-4-(methoxymethyl)phenyl)-6-oxo-1,6-dihydropyrimidine-5-carboxamide] | 7.90 | 8.15 | 6.29 | 6.27
COCc1cc(Cl)c(-n2cnc(N)c(C(=O)Nc3cncc([C@H](N)CC(F)F)c3)c2=O)c(Cl)c1 (single isomer, unassigned) [Example 70, (R)-4-amino-N-(5-(1-amino-3,3-difluoropropyl)pyridin-3-yl)-1-(2,6-dichloro-4-(methoxymethyl)phenyl)-6-oxo-1,6-dihydropyrimidine-5-carboxamide or (S)-4-amino-N-(5-(1-amino-3,3-difluoropropyl)pyridin-3-yl)-1-(2,6-dichloro-4-(methoxymethyl)phenyl)-6-oxo-1,6-dihydropyrimidine-5-carboxamide] | 8.54 | 8.62 | 6.70 | 6.84
COc1cc(Cl)c(-n2cnc(N)c(C(=O)Nc3cncc([C@@H](C)N)c3)c2=O)c(Cl)c1 (single isomer, unassigned) [Example 74, (R)-4-amino-N-(5-(1-aminoethyl)pyridin-3-yl)-1-(2,6-dichloro-4-methoxyphenyl)-6-oxo-1,6-dihydropyrimidine-5-carboxamide or (S)-4-amino-N-(5-(1-aminoethyl)pyridin-3-yl)-1-(2,6-dichloro-4-methoxyphenyl)-6-oxo-1,6-dihydropyrimidine-5-carboxamide] | 8.02 | 8.18 | 6.44 | 6.33
COc1cc(Cl)c(-n2cnc(N)c(C(=O)Nc3cncc([C@@H]4COCCCN4)c3)c2=O)c(Cl)c1 (single isomer, unassigned) [Example 75, (R)-N-(5-(1,4-oxazepan-3-yl)pyridin-3-yl)-4-amino-1-(2,6-dichloro-4-methoxyphenyl)-6-oxo-1,6-dihydropyrimidine-5-carboxamide or (S)-N-(5-(1,4-oxazepan-3-yl)pyridin-3-yl)-4-amino-1-(2,6-dichloro-4-methoxyphenyl)-6-oxo-1,6-dihydropyrimidine-5-carboxamide] | 8.62 | 8.44 | 6.73 | 6.97

More lines, in order of rising pIC50 (human GSK3α), values ahead:

pIC50 (human GSK3α) | pIC50 (GSK3A) | pIC50 (GSK3B [1]) | pIC50 (GSK3B [2]) | Structure (SMILES)
8.51 | 8.60 | 6.73 | 6.65 | Nc1ncn(-c2c(Cl)cc(C(F)F)cc2Cl)c(=O)c1C(=O)Nc1cncc([C@@H]2COCCCN2)c1 (single isomer, unassigned) [Example 59, (R)-N-(5-(1,4-oxazepan-3-yl)pyridin-3-yl)-4-amino-1-(2,6-dichloro-4-(difluoromethyl)phenyl)-6-oxo-1,6-dihydropyrimidine-5-carboxamide or (S)-N-(5-(1,4-oxazepan-3-yl)pyridin-3-yl)-4-amino-1-(2,6-dichloro-4-(difluoromethyl)phenyl)-6-oxo-1,6-dihydropyrimidine-5-carboxamide]
8.55 | 8.66 | 6.91 | 6.85 | C[C@@H](N)c1cncc(NC(=O)c2c(N)ncn(-c3c(Cl)cc(OC4CC4)cc3Cl)c2=O)c1 (single isomer, unassigned) [Example 51, (R)-4-amino-N-(5-(1-aminoethyl)pyridin-3-yl)-1-(2,6-dichloro-4-cyclopropoxyphenyl)-6-oxo-1,6-dihydropyrimidine-5-carboxamide or (S)-4-amino-N-(5-(1-aminoethyl)pyridin-3-yl)-1-(2,6-dichloro-4-cyclopropoxyphenyl)-6-oxo-1,6-dihydropyrimidine-5-carboxamide]
8.60 | 8.55 | 6.84 | 6.79 | COCC(N)c1cncc(NC(=O)c2c(N)ncn(-c3c(Cl)cc(Cl)cc3Cl)c2=O)c1 (single isomer, unassigned) [Example 49, (R)-4-amino-N-(5-(1-amino-2-methoxyethyl)pyridin-3-yl)-6-oxo-1-(2,4,6-trichlorophenyl)-1,6-dihydropyrimidine-5-carboxamide or (S)-4-amino-N-(5-(1-amino-2-methoxyethyl)pyridin-3-yl)-6-oxo-1-(2,4,6-trichlorophenyl)-1,6-dihydropyrimidine-5-carboxamide]
8.68 | 8.85 | 7.13 | 6.98 | COCc1cc(Cl)c(-n2cnc(N)c(C(=O)Nc3cncc([C@@H](C)N)c3)c2=O)c(Cl)c1 (single isomer, unassigned) [Example 67, (S)-4-amino-N-(5-(1-aminoethyl)pyridin-3-yl)-1-(2,6-dichloro-4-(methoxymethyl)phenyl)-6-oxo-1,6-dihydropyrimidine-5-carboxamide or (R)-4-amino-N-(5-(1-aminoethyl)pyridin-3-yl)-1-(2,6-dichloro-4-(methoxymethyl)phenyl)-6-oxo-1,6-dihydropyrimidine-5-carboxamide]
